Each compound was assayed against human wild type-CFTR (Homo sapiens, UniProt P13569) (assay: Cell-based YFP assay). Conditions: CHO-K1 cells expressing human wild type-CFTR and YFP-H148Q/I152L; forskolin 20 μM = 100% activity; read-out: Cell-based YFP Assay (EC50) Concentration Range.
Set-up: expressed in transfected cells; host or cells: CHO-K1 (Chinese hamster ovary)
In short: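 I⁻-driven YFP fluorescence quenching at 37 °C: 2 s baseline, addition of 140 mM iodide solution, then 14 s of readings at 0.4 s intervals. Cells were CHO-K1 expressing human wild-type CFTR plus YFP-H148Q/I152L. EC50 derived from averaged triplicates.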

Chain of human wild type-CFTR (P13569 whole entry): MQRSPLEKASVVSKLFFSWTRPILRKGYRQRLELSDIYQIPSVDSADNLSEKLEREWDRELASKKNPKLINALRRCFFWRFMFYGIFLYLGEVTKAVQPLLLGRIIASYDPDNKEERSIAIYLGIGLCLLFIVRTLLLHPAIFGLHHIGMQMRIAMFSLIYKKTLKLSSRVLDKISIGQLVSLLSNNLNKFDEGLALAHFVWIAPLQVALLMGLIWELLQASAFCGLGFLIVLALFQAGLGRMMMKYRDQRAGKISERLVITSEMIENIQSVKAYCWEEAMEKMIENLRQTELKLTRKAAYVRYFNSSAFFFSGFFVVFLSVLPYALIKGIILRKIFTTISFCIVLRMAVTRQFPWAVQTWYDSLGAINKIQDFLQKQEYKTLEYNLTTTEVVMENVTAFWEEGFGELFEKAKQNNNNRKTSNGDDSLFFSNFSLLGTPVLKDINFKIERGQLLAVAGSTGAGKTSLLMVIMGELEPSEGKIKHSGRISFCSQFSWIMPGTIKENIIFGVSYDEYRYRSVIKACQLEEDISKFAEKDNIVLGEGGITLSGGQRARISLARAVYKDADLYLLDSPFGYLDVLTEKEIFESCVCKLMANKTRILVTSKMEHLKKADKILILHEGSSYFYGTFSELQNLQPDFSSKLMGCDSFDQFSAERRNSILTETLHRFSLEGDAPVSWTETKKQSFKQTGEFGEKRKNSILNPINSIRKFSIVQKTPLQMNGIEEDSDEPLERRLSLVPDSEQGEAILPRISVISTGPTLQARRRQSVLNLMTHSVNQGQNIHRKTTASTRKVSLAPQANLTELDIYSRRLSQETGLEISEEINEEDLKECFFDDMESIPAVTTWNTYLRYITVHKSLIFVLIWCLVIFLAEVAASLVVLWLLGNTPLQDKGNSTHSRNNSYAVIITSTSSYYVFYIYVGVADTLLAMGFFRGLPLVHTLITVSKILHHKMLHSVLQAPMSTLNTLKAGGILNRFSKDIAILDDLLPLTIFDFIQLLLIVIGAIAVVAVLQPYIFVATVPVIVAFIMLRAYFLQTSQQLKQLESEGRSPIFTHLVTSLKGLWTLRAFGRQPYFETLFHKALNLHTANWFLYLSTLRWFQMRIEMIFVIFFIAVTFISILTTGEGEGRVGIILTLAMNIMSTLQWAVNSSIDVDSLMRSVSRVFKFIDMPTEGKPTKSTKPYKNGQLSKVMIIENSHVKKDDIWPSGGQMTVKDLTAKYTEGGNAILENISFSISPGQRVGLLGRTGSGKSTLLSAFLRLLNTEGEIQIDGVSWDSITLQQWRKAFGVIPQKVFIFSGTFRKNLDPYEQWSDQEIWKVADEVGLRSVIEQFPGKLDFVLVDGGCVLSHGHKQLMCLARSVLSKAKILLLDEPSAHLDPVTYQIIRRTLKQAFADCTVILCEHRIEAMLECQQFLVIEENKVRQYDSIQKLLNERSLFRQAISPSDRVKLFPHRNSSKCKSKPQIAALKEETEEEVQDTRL

| SMILES | EC50 |
| --- | --- |
| COc1ccc(-c2ccnc3cc(C(=O)Nc4ccc(C(=O)NCCN5CCCCC5)cc4)nn23)cc1OC [Compound 119, 7-(3,4-dimethoxyphenyl)-N-(4-((2-(piperidin-1-yl)ethyl)carbamoyl)phenyl) pyrazolo[1,5-a]pyrimidine-2-carboxamide] | 200 to 2000 nM |
| COc1ccc(-c2ccnc3cc(C(=O)N[C@H]4CC[C@H](N5CCOCC5)CC4)nn23)cc1OC [Compound 345, 7-(3,4-dimethoxyphenyl)-N-((1R,4R)-4-morpholinocyclohexyl) pyrazolo[1,5-a]pyrimidine-2-carboxamide] | ≥ 2000 nM |
| CCCCOC(=O)c1ccc(NC(=O)c2cc3nccc(-c4ccc(OC)c(OC)c4)n3n2)cc1 [Compound 336, butyl 4-(7-(3,4-dimethoxyphenyl)pyrazolo[1,5-a]pyrimidine-2-carboxamido) benzoate] | 200 to 2000 nM |
| COc1ccc(-c2ccnc3cc(C(=O)N4CCCc5cc(C(=O)O)ccc54)nn23)cc1OC [Compound 233, 1-(7-(3,4-dimethoxyphenyl)pyrazolo[1,5-a]pyrimidine-2-carbonyl)-1,2,3,4-tetrahydroquinoline-6-carboxylic acid] | ≥ 2000 nM |
| COc1ccc(-c2ccnc3cc(C(=O)Nc4ccc(N5CCCCC5)cc4)nn23)cc1OC [Compound 269, 7-(3,4-dimethoxyphenyl)-N-(4-(piperidin-1-yl)phenyl)pyrazolo [1,5-a]pyrimidine-2-carboxamide] | < 200 nM |
| COc1ccc(-c2ccnc3cc(C(=O)Nc4ccc(CN5CCOCC5)cc4)nn23)cc1OC [Compound 244, 7-(3,4-dimethoxyphenyl)-N-(4-(morpholinomethyl)phenyl) pyrazolo[1,5-a]pyrimidine-2-carboxamide] | < 200 nM |
| COc1ccc(-c2ccnc3cc(C(=O)N[C@H]4CC[C@H](C(=O)NCCCN5CCOCC5)CC4)nn23)cc1OC [Compound 203, 7-(3,4-dimethoxyphenyl)-N-((1r,4r)-4-((3-morpholinopropyl)carbamoyl)cyclohexyl) pyrazolo[1,5-a]pyrimidine-2-carboxamide] | ≥ 2000 nM |
| COc1ccc(-c2ccnc3cc(C(=O)N4CCc5ccc(C(=O)O)cc5C4)nn23)cc1OC [Compound 155, 2-(7-(3,4-dimethoxyphenyl)pyrazolo[1,5-a]pyrimidine-2-carbonyl)-1,2,3,4-tetrahydroisoquinoline-7-carboxylic acid] | ≥ 2000 nM |
| COc1ccc(-c2ccnc3cc(C(=O)Nc4ccc(C(=O)OCCCN5CCN(C)CC5)cn4)nn23)cc1OC [Compound 189, 3-(4-methylpiperazin-1-yl) propyl 6-(7-(3,4-dimethoxyphenyl)pyrazolo [1,5-a]pyrimidine-2-carboxamido)nicotinate] | < 200 nM |
| COC(=O)c1ccc(N(C)C(=O)c2cc3nccc(-c4ccc(OC)c(OC)c4)n3n2)cc1 [Compound 183, methyl 4-(7-(3,4-dimethoxyphenyl)-N-methylpyrazolo[1,5-a]pyrimidine-2-carboxamido)benzoate] | 200 to 2000 nM |
| CC[C@H]1CN(C(=O)c2cc3nccc(-c4ccc(OC)c(OC)c4)n3n2)CCN1C(=O)c1ccccc1 [Compound 375, (S)-(4-benzoyl-3-ethylpiperazin-1-yl)(7-(3,4-dimethoxyphenyl)pyrazolo [1,5-a]pyrimidin-2-yl)methanone] | < 200 nM |
| COc1ccc(-c2ccnc3cc(C(=O)N4CC[C@@H](NC(=O)C5CCN(C)CC5)C4)nn23)cc1OC [Compound 188, (R)-N-(1-(7-(3,4-dimethoxyphenyl)pyrazolo [1,5-a]pyrimidine-2-carbonyl)pyrrolidin-3-yl)-1-methylpiperidine-4-carboxamide] | ≥ 2000 nM |
| COc1ccc(-c2ccnc3cc(C(=O)N4CCN(C(=O)c5ccccc5)[C@@H](C5CC5)C4)nn23)cc1OC [Compound 378, (S)-(4-benzoyl-3-cyclopropylpiperazin-1-yl)(7-(3,4-dimethoxyphenyl)pyrazolo[1,5-a]pyrimidin-2-yl) methanone] | < 200 nM |
| COc1ccc(-c2ccnc3cc(C(=O)N4CCc5cc(C(=O)N6CCOCC6)ccc54)nn23)cc1OC [Compound 251, (7-(3,4-dimethoxyphenyl)pyrazolo[1,5-a]pyrimidin-2-yl)(5-(morpholine-4-carbonyl)indolin-1-yl) methanone] | 200 to 2000 nM |
| COc1ccc(-c2ccnc3cc(C(=O)N[C@H]4CC[C@@H](C(=O)N5CCNCC5)CC4)nn23)cc1OC [Compound 81, 7-(3,4-dimethoxyphenyl)-N-((1S,4S)-4-(piperazine-1-carbonyl)cyclohexyl) pyrazolo[1,5-a]pyrimidine-2-carboxamide] | ≥ 2000 nM |
| COc1ccc(-c2ccnc3cc(C(=O)Nc4ccc(C(=O)N5CCN(C)CC5)c(F)c4)nn23)cc1OC [Compound 175, 7-(3,4-dimethoxyphenyl)-N-(3-fluoro-4-(4-methylpiperazine-1-carbonyl)phenyl)pyrazolo [1,5-a]pyrimidine-2-carboxamide] | < 200 nM |
| CCOC(=O)[C@H]1CC[C@H](NC(=O)c2cc3nccc(-c4ccc(OC)c(OC)c4)n3n2)CC1 [Compound 330, ethyl (1R,4R)-4-(7-(3,4-dimethoxyphenyl)pyrazolo [1,5-a]pyrimidine-2-carboxamido)cyclohexane-1-carboxylate] | 200 to 2000 nM |

| SMILES | EC50 |
| --- | --- |
| COc1ccc(-c2ccnc3cc(C(=O)NCc4ccc(N5CCOCC5)cc4)nn23)cc1OC [Compound 246, 7-(3,4-dimethoxyphenyl)-N-(4-morpholinobenzyl)pyrazolo [1,5-a]pyrimidine-2-carboxamide] | 200 to 2000 nM |
| CCOc1ccc(NC(=O)c2cc3ncc(-c4ccc(OC)c(OC)c4)cn3n2)cc1 [Compound 254, 6-(3,4-dimethoxyphenyl)-N-(4-ethoxyphenyl)pyrazolo[1,5-a]pyrimidine-2-carboxamide] | ≥ 2000 nM |
| COc1ccc(-c2ccnc3cc(C(=O)N[C@H]4CC[C@@H](C(N)=O)CC4)nn23)cc1OC [Compound 71, N-((1S,4S)-4-carbamoylcyclohexyl)-7-(3,4-dimethoxyphenyl)pyrazolo [1,5-a]pyrimidine-2-carboxamide] | ≥ 2000 nM |
| COc1ccc(-c2ccnc3cc(C(=O)Nc4ccc(OC(=O)CNC(=O)OC(C)(C)C)cc4)nn23)cc1OC [Compound 227, 4-(7-(3,4-dimethoxyphenyl)pyrazolo[1,5-a]pyrimidine-2-carboxamido) phenyl(tert-butoxycarbonyl)glycinate] | < 200 nM |
| COc1ccc(-c2ccnc3cc(C(=O)N4C[C@@H](C)N[C@@H](C)C4)nn23)cc1OC [Compound 358, (7-(3,4-dimethoxyphenyl)pyrazolo[1,5-a]pyrimidin-2-yl) ((3R,5S)-3,5-dimethylpiperazin-1-yl) methanone] | 200 to 2000 nM |
| CCCCOc1ccc(NC(=O)c2cc3nccc(-c4ccc(OC)c(OC)c4)n3n2)cc1 [Compound 229, N-(4-butoxyphenyl)-7-(3,4-dimethoxyphenyl)pyrazolo [1,5-a]pyrimidine-2-carboxamide] | < 200 nM |
| COc1ccc(-c2ccnc3cc(C(=O)N[C@H]4CC[C@@H](O)CC4)nn23)cc1OC [Compound 102, 7-(3,4-dimethoxyphenyl)-N-((1S,4S)-4-hydroxycyclohexyl) pyrazolo[1,5-a]pyrimidine-2-carboxamide] | ≥ 2000 nM |
| COc1ccc(-c2ccnc3cc(C(=O)N4CC[C@H](O)C4)nn23)cc1OC [Compound 148, (S)-(7-(3,4-dimethoxyphenyl)pyrazolo[1,5-a]pyrimidin-2-yl)(3-hydroxypyrrolidin-1-yl)methanone] | ≥ 2000 nM |
| COc1ccc(-c2ccnc3cc(C(=O)Nc4ccc(C(=O)NCC(=O)O)cc4)nn23)cc1OC [Compound 30, (4-(7-(3,4-dimethoxyphenyl)pyrazolo[1,5-a]pyrimidine-2-carboxamido)benzoyl)glycine] | ≥ 2000 nM |
| COc1ccc(-c2ccnc3cc(C(=O)Nc4ccc(C(=O)N[C@H](C)C(=O)O)cc4)nn23)cc1OC [Compound 89, (4-(7-(3,4-dimethoxyphenyl)pyrazolo[1,5-a]pyrimidine-2-carboxamido)benzoyl)-D-alanine] | ≥ 2000 nM |
| COc1ccc(-c2ccnc3cc(C(=O)Nc4cccc(C(N)=O)c4)nn23)cc1OC [Compound 54, N-(3-carbamoylphenyl)-7-(3,4-dimethoxyphenyl)pyrazolo [1,5-a]pyrimidine-2-carboxamide] | 200 to 2000 nM |
| COc1ccc(-c2ccnc3cc(C(=O)N4CCN(C(=O)OC(C)(C)C)[C@@H](C)C4)nn23)cc1OC [Compound 112, tert-butyl (S)-4-(7-(3,4-dimethoxyphenyl)pyrazolo[1,5-a]pyrimidine-2-carbonyl)-2-methylpiperazine-1-carboxylate] | < 200 nM |
| CCOc1ccc(NC(=O)c2cc3nccc(-c4ccc(OC(F)(F)F)c(Cl)c4)n3n2)cc1 [Compound 298, 7-(3-chloro-4-(trifluoromethoxy)phenyl)-N-(4-ethoxyphenyl)pyrazolo [1,5-a]pyrimidine-2-carboxamide] | ≥ 2000 nM |
| COc1ccc(-c2ccnc3cc(C(=O)NC45CC(NC(=O)N6CCOCC6)(C4)C5)nn23)cc1OC [Compound 138, N-(3-(7-(3,4-dimethoxyphenyl)pyrazolo[1,5-a]pyrimidine-2-carboxamido)bicyclo [1.1.1]pentan-1-yl)morpholine-4-carboxamide] | ≥ 2000 nM |
| COCCOCOC(=O)[C@H]1CC[C@H](NC(=O)c2cc3nccc(-c4ccc(OC)c(OC)c4)n3n2)CC1 [Compound 328, (2-methoxyethoxy)methyl (1R,4R)-4-(7-(3,4-dimethoxyphenyl)pyrazolo [1,5-a]pyrimidine-2-carboxamido)cyclohexane-1-carboxylate] | 200 to 2000 nM |
| COc1ccc(-c2ccnc3cc(C(=O)N4CCC(=O)C4)nn23)cc1OC [Compound 117, 1-(7-(3,4-dimethoxyphenyl)pyrazolo[1,5-a]pyrimidine-2-carbonyl) pyrrolidin-3-one] | ≥ 2000 nM |

Source: US20240199623A1 (ILDONG PHARMACEUTICAL CO., LTD., priority 2020, published 2024)
